Where “and” joins values, the source holds several entries; their conditions need not be identical. Equal entries are not always repeated. Inconclusive results and toxic doses are left out. The calls were made as follows: active = survival T/C of 150% or more; inactive = T/C below 125% in these data.
Tested on: P335 leukemia ip, BDF1 mice, survival T/C %
Assay: NCI In Vivo Anticancer Drug Screen. Data for tumor model P335 Leukemia (intraperitoneal) in B6D2F1 (BDF1) mice
Conditions: endpoint: mean survival time, schedule: Q01DX Z (ip), higher = longer survival
Procedure: The antitumor activity of compounds was measured in mice bearing transplantable tumors. Survival or tumor size were measured and the results are expressed as the measurement made in the treated group (T) divided by the measurement made in the vehicle treated control group (C). The tumor model used in this assay is P335 Leukemia (intraperitoneal) in B6D2F1 (BDF1) mice

[1] = dose: 8.0 mg/kg/injection, vehicle: carboxymethylcellulose (CMC)
[2] = dose: 16.0 mg/kg/injection, vehicle: carboxymethylcellulose (CMC)
[3] = dose: 12.5 mg/kg/injection, vehicle: carboxymethylcellulose (CMC)
[4] = dose: 50.0 mg/kg/injection, vehicle: carboxymethylcellulose (CMC)
[5] = dose: 100.0 mg/kg/injection, vehicle: carboxymethylcellulose (CMC)
[6] = dose: 25.0 mg/kg/injection, vehicle: carboxymethylcellulose (CMC)

Measured: T/C

CCCCNc1ncnc2c1cnn2C
inactive: dose: 4.0 mg/kg/injection, vehicle: carboxymethylcellulose (CMC) 86 % of control | [1] 86 % of control | [2] 96 % of control | dose: 31.25 mg/kg/injection, vehicle: carboxymethylcellulose (CMC) 101 % of control | dose: 62.5 mg/kg/injection, vehicle: carboxymethylcellulose (CMC) 93 % of control

NC(N)=Nc1nc2ccccc2o1
inactive: dose: 2.0 mg/kg/injection, vehicle: carboxymethylcellulose (CMC) 92 % of control | [1] 90 % of control | [2] 90 % of control | dose: 31.0 mg/kg/injection, vehicle: carboxymethylcellulose (CMC) 94 % of control | dose: 63.0 mg/kg/injection, vehicle: carboxymethylcellulose (CMC) 94 % of control | dose: 125.0 mg/kg/injection, vehicle: carboxymethylcellulose (CMC) 86 % of control

C1CN1c1nc(N2CC2)nc(N2CC2)n1
inactive: dose: 0.9 micrograms/kg/injection, vehicle: saline 87 % of control | dose: 1.9 micrograms/kg/injection, vehicle: saline 90 % of control | dose: 7.8 micrograms/kg/injection, vehicle: saline 90 % of control and 114 % of control

CC(=O)Nc1ccc2nc3ccc(NC(C)=O)cc3[n+](-c3ccccc3)c2c1
inactive: [3] 98 % of control

N#CCSc1ncnc2nc[nH]c12
inactive: [4] 93 % of control | [5] 93 % of control | dose: 200.0 mg/kg/injection, vehicle: methylcellulose (MC) 91 % of control

CCn1cnc2c(=S)nc[nH]c21
inactive: dose: 15.6 mg/kg/injection, vehicle: carboxymethylcellulose (CMC) 96 % of control

C[n+]1c2ccccc2nc2c(N)cc(N)cc21
inactive: dose: 1.6 mg/kg/injection, vehicle: carboxymethylcellulose (CMC) 94 % of control | dose: 3.1 mg/kg/injection, vehicle: carboxymethylcellulose (CMC) 86 % of control | dose: 6.2 mg/kg/injection, vehicle: carboxymethylcellulose (CMC) 97 % of control | dose: 6.25 mg/kg/injection, vehicle: carboxymethylcellulose (CMC) 124 % of control | [3] 100 % of control and 114 % of control | [6] 120 % of control

CCCCCCCCCCCCNCCCCCCCCCCCC
inactive: dose: 3.75 mg/kg/injection, vehicle: carboxymethylcellulose (CMC) 91 % of control | dose: 7.5 mg/kg/injection, vehicle: carboxymethylcellulose (CMC) 115 % of control | dose: 15.0 mg/kg/injection, vehicle: carboxymethylcellulose (CMC) 92 % of control | dose: 30.0 mg/kg/injection, vehicle: carboxymethylcellulose (CMC) 88 % of control

Cc1cc(N(CCCl)CCCl)ccc1N=Nc1ccccc1C(=O)O
inactive: dose: 0.12 mg/kg/injection, vehicle: carboxymethylcellulose (CMC) 90 % of control | dose: 0.23 mg/kg/injection, vehicle: carboxymethylcellulose (CMC) 106 % of control | dose: 0.47 mg/kg/injection, vehicle: carboxymethylcellulose (CMC) 106 % of control | dose: 0.94 mg/kg/injection, vehicle: carboxymethylcellulose (CMC) 94 % of control

C[C@@H]1C[C@H]2CC[C@H](O2)[C@H](C)C(=O)O[C@@H](C)C[C@@H]2CC[C@@H](O2)[C@@H](C)C(=O)O[C@H](C)C[C@H]2CC[C@H](O2)[C@H](C)C(=O)O[C@@H](C)C[C@@H]2CC[C@@H](O2)[C@@H](C)C(=O)O1
inactive: [6] 96 % of control | [4] 88 % of control | [5] 86 % of control

O[C@H](CN1CC1)[C@@H](O)CN1CC1
inactive: dose: 1.8 micrograms/kg/injection, vehicle: carboxymethylcellulose (CMC) 95 % of control | dose: 3.7 micrograms/kg/injection, vehicle: carboxymethylcellulose (CMC) 111 % of control | dose: 7.5 micrograms/kg/injection, vehicle: carboxymethylcellulose (CMC) 119 % of control | dose: 15.0 micrograms/kg/injection, vehicle: carboxymethylcellulose (CMC) 109 % of control

Reference: PubChem BioAssay AID224 (DTP/NCI, 2004)
